Patent US4258184A, “Cephalosporin derivatives” (Meiji Seika Kaisha Ltd., priority 1976, dated 1981)
≈ marks a conversion by molar mass, not a printed value. Read-outs that look alike come from different tables or passages of the source.

Key:
[1] = system: Salmonella typhi O-901-W; experiment: Minimum prohibiting/inhibition concentration by agar plate dilution method; type: cell-based; details: Salmonella enterica
Description: (§1) Minimum prohibiting concentration (γ/ml)
(§2) by means of agar plate dilution method
(§3) Minimum inhibition concentration (γ/ml) by means
(§4) of agar plate dilution method

[2] = system: Proteus morganii Kono; experiment: as above; type: cell-based; details: Morganella morganii
Description: as §1, §2, §3, §4

[3] = system: Vibrio parahaemolyticus K-5; experiment: as above; type: cell-based
Description: as §1, §2, §3, §4

[4] = system: Staphylococcus aureus Smith S-424; experiment: as above; type: cell-based
Description: as §1, §2, §3, §4

[5] = system: Salmonella enteriditis No. 11; experiment: as above; type: cell-based
Description: as §1, §2, §3, §4

[6] = system: Klebsiella pneumoniae; experiment: Minimum inhibition concentration by agar plate dilution method; type: cell-based; details: Table 2
Description: as §3, §4

[7] = system: Staphylococcus aureus Smith No. 26; experiment: as above; type: cell-based; details: read-out: Minimum inhibition concentration
Description: as §3, §4

[8] = system: Pseudomonas aeruginosa IAM 1007; experiment: Minimum prohibiting concentration by agar plate dilution method; type: cell-based
Description: as §1, §2

[9] = system: Serratia species No. 2; experiment: as above; type: cell-based
Description: as §1, §2

[10] = system: Proteus species C73-34; experiment: as above; type: cell-based; details: read-out: Minimum prohibiting concentration
Description: as §1, §2

[11] = system: Escherichia coli C73-1; experiment: as above; type: cell-based
Description: as §1, §2

[12] = system: Staphylococcus aureus No. 26; experiment: as above; type: cell-based
Description: as §1, §2

[13] = system: Escherichia coli NIHJ JC-2; experiment: as above; type: cell-based
Description: as §1, §2

[14] = system: Escherichia coli K-12 IAM 1264; experiment: as above; type: cell-based; details: IAM1264, Table 1
Description: as §1, §2

[15] = system: Bacillus subtilis ATCC 6633; experiment: as above; type: cell-based
Description: as §1, §2

[16] = system: Serratia species MS-2; experiment: as above; type: cell-based
Description: as §1, §2

[17] = system: Staphylococcus aureus 209p JC-1; experiment: as above; type: cell-based; details: read-out: Minimum prohibiting concentration
Description: as §1, §2

[18] = system: Pseudomonas species C73-83; experiment: as above; type: cell-based
Description: as §1, §2

[19] = system: Enterobacter species C73-17; experiment: as above; type: cell-based
Description: as §1, §2

[20] = system: Vibrio parahaemolyticus K-7; experiment: as above; type: cell-based
Description: as §1, §2

[21] = system: Pseudomonas species C73-2; experiment: as above; type: cell-based; details: C732, Table 1
Description: as §1, §2

[22] = system: Proteus species C73-25; experiment: as above; type: cell-based; details: read-out: Minimum prohibiting concentration
Description: as §1, §2

[23] = Toxicity, peritoneal administration to mice; type: in vivo; details: 6 mice, administered peritoneally, dosage amount of 200 mg/l kg
Description: The toxicity of the compounds according to this invention is excellently low. […] As is clear from above, the compounds according to this invention are not only low in toxicity and excellent in anti-biotic activity but also have a prolonged action after administration. Therefore, they show excellent infection cure effect and infection-defense effect in before-or after-administration and in less dosage in comparison with known cephalosporin derivatives, for example, cephalothin, cefazolin or cephaloridine.

[24] = read-out: Minimum inhibition concentration
[25] = Table 2, agar plate dilution method, Proteus morganii Kono, read-out: Minimum inhibition concentration
[26] = K5, Table 2, agar plate dilution method, Vibrio parahaemolyticus K-5, read-out: Minimum inhibition concentration
[27] = Table 2, agar plate dilution method, Salmonella enteritidis N0. 11, read-out: Minimum inhibition concentration
[28] = Table 2, agar plate dilution method, Staphylococcus aureus Smith No. 26
[29] = IAM1007, Table 1, agar plate dilution method, Pseudomonas aeruginosa IAM 1007, read-out: Minimum prohibiting concentration
[30] = Table 1, agar plate dilution method, Serratia species No. 2, read-out: Minimum prohibiting concentration
[31] = Table 1, agar plate dilution method, Proteus species C73-34
[32] = C731, Table 1, agar plate dilution method, Escherichia coli C73-1, read-out: Minimum prohibiting concentration
[33] = Table 1, agar plate dilution method, Staphylococcus aureus No. 26, read-out: Minimum prohibiting concentration
[34] = Escherichia coli, NIHJJC2, read-out: Minimum prohibiting concentration
[35] = ATCC6633, Table 1, agar plate dilution method, Bacillus subtilis ATCC 6633, read-out: Minimum prohibiting concentration
[36] = Serratia, MS2, read-out: Minimum prohibiting concentration
[37] = Table 1, agar plate dilution method, Staphylococcus aureus 209p JC-1
[38] = C7383, Table 1, agar plate dilution method, Pseudomonas species C73-83, read-out: Minimum prohibiting concentration
[39] = C7317, Table 1, agar plate dilution method, Enterobacter species C73-17, read-out: Minimum prohibiting concentration
[40] = K7, Table 1, agar plate dilution method, Vibrio parahaemolyticus K-7, read-out: Minimum prohibiting concentration
[41] = Table 1, agar plate dilution method, Proteus species C73-25
[42] = read-out: Minimum prohibiting concentration
[43] = K5, Table 1, agar plate dilution method, Vibrio parahaemolyticus K-5, read-out: Minimum prohibiting concentration
[44] = SMITHS424, Table 1, agar plate dilution method, Staphylococcus aureus Smith S-424, read-out: Minimum prohibiting concentration
[45] = Table 1, agar plate dilution method, Salmonella enteriditis No. 11, read-out: Minimum prohibiting concentration
[46] = NIHJJC2, Table 1, agar plate dilution method, Escherichia coli NIHJ JC-2, read-out: Minimum prohibiting concentration
[47] = MS2, Table 1, agar plate dilution method, Serratia species MS-2, read-out: Minimum prohibiting concentration
[48] = Table 1, agar plate dilution method, Proteus morganii Kono, read-out: Minimum prohibiting concentration
[49] = Staphylococcus aureus, NO.26, read-out: Minimum prohibiting concentration
[50] = Salmonella, NO.11, read-out: Minimum prohibiting concentration

SMILES	MIC [1, 24]	MIC [2, 25]	MIC [3, 26]	MIC [5, 27]	MIC [6]	MIC [7, 28]	MIC [8, 29]	MIC [9, 30]	MIC [10, 31]	MIC [11, 32]	MIC [14]	MIC [15, 35]	MIC [17, 37]	MIC [18, 38]	MIC [19, 39]	MIC [20, 40]	MIC [21]	MIC [1, 42]	MIC [3, 43]	MIC [4, 44]	also measured
Cc1ccc(-c2ccc(C(=O)N[C@@H](C(=O)NC3C(=O)N4C(C(=O)O)=C(CSc5nnnn5C)CS[C@H]34)c3ccccc3)c(O)n2)cc1 (stereo partly drawn) [Example 57, 7-{D-(-)-α-[2-hydroxy-6-(p-tolyl)pyridine-3-carbonylamino]-phenylacetamido}-3-(1-methyl-1,2,3,4-tetrazole-5-ylthiomethyl)-3-cephem-4-carboxylicacid]	6.25 µg/mL (≈ 9.29 µM)	100 µg/mL (≈ 149 µM)	25 µg/mL (≈ 37.2 µM)	3.13 µg/mL (≈ 4.65 µM)	50 µg/mL (≈ 74.3 µM)	50 µg/mL (≈ 74.3 µM)															MIC ([4]; SMITHS424, Table 2, agar plate dilution method, Staphylococcus aureus Smith S-424, read-out: Minimum inhibition concentration): 12.5 µg/mL (≈ 18.6 µM)
CC1(C)S[C@@H]2[C@H](NC(=O)C(C(=O)O)c3ccccc3)C(=O)N2[C@H]1C(=O)O (some centres unmarked) [Carbenicillin disodium, reference compound]	12.5 µg/mL		> 100 µg/mL	50 µg/mL	25 µg/mL	25 µg/mL	> 100 µg/mL	50 µg/mL	50 µg/mL	25 µg/mL	12.5 µg/mL	0.39 µg/mL	0.39 µg/mL	> 100 µg/mL	> 100 µg/mL	50 µg/mL	> 100 µg/mL	12.5 µg/mL	> 100 µg/mL	0.39 µg/mL	MIC [12, 33]: 25 µg/mL; MIC [13, 34]: 12.5 µg/mL; MIC [16, 36]: 12.5 µg/mL; MIC [22, 41]: 50 µg/mL; MIC [2, 24]: 12.5 µg/mL; MIC [2, 42]: 12.5 µg/mL; MIC [5, 45]: 50 µg/mL
Cc1ccc(-c2ccc(C(=O)N[C@@H](C(=O)NC3C(=O)N4C(C(=O)O)=C(CSc5nnnn5C)CS[C@H]34)c3ccc(O)cc3)c(O)n2)cc1 (stereo partly drawn) [Example 56, 7-{D-(-)-α-[2-hydroxy-6-(p-tolyl)pyridine-3-carbonylamino]-p-hydroxyphenylacetamido}-3-(1-methyl-1,2,3,4-tetrazole-5-ylthiomethyl)-3-cephem-4-carboxylic acid]	1.56 µg/mL (≈ 2.26 µM)	12.5 µg/mL (≈ 18.1 µM)	25 µg/mL (≈ 36.3 µM)		25 µg/mL (≈ 36.3 µM)																MIC ([4]; Staphylococcus aureus, SMITHS424, read-out: Minimum inhibition concentration): 1.56 µg/mL (≈ 2.26 µM); MIC [5, 24]: 1.56 µg/mL (≈ 2.26 µM); MIC ([7]; Staphylococcus aureus): 6.25 µg/mL (≈ 9.07 µM)
Cc1ccc(-c2ccc(C(=O)N[C@@H](C(=O)NC3C(=O)N4C(C(=O)O)=C(CSc5nnc(C(N)=O)s5)CS[C@H]34)c3ccccc3)c(O)n2)cc1 (stereo partly drawn) [Example 2, 7-{D(-)-α-[2-hydroxy-6-(p-tolyl)pyridine-3-carbonylamino]phenylacetamido}-3-(5-carbamoyl-1,3,4-thiadiazol-2-ylthiomethyl)-3-cephem-4-carboxylic acid]							100 µg/mL (≈ 139 µM)	100 µg/mL (≈ 139 µM)	12.5 µg/mL (≈ 17.4 µM)	25 µg/mL (≈ 34.8 µM)	6.25 µg/mL (≈ 8.71 µM)	1.56 µg/mL (≈ 2.17 µM)	0.78 µg/mL (≈ 1.09 µM)	100 µg/mL (≈ 139 µM)	50 µg/mL (≈ 69.7 µM)	12.5 µg/mL (≈ 17.4 µM)	100 µg/mL (≈ 139 µM)	3.13 µg/mL (≈ 4.36 µM)	25 µg/mL (≈ 34.8 µM)	0.78 µg/mL (≈ 1.09 µM)	MIC [12, 33]: 6.25 µg/mL (≈ 8.71 µM); MIC [13, 46]: 25 µg/mL (≈ 34.8 µM); MIC [16, 47]: 50 µg/mL (≈ 69.7 µM); MIC [22, 41]: 25 µg/mL (≈ 34.8 µM); MIC [2, 48]: 100 µg/mL (≈ 139 µM); MIC [5, 45]: 0.39 µg/mL (≈ 0.543 µM); mortality [23]: any mouse did not die
Cc1nnc(SCC2=C(C(=O)O)N3C(=O)[C@@H](NC(=O)Cn4cnnn4)[C@H]3SC2)s1 [Cefazolin Na, reference compound]							> 100 µg/mL	> 100 µg/mL	12.5 µg/mL (≈ 27.5 µM)	6.25 µg/mL (≈ 13.8 µM)	3.13 µg/mL (≈ 6.89 µM)	0.2 µg/mL (≈ 0.44 µM)	0.1 µg/mL (≈ 0.22 µM)	> 100 µg/mL	50 µg/mL (≈ 110 µM)	12.5 µg/mL (≈ 27.5 µM)	> 100 µg/mL	3.13 µg/mL (≈ 6.89 µM)	6.25 µg/mL (≈ 13.8 µM)	0.78 µg/mL (≈ 1.72 µM)	MIC [12, 49]: 3.13 µg/mL (≈ 6.89 µM); MIC [13, 46]: 6.25 µg/mL (≈ 13.8 µM); MIC [16, 47]: > 100 µg/mL; MIC [22]: 3.13 µg/mL (≈ 6.89 µM); MIC [2, 48]: > 100 µg/mL; MIC [5, 50]: 3.13 µg/mL (≈ 6.89 µM)
Cc1ccc(-c2ccc(C(=O)N[C@@H](C(=O)NC3C(=O)N4C(C(=O)[O-])=C(CSc5nnc(C(N)=O)s5)CS[C@H]34)c3ccc(O)cc3)c(O)n2)cc1.[Na+] (stereo partly drawn) [Example 8, sodium 7-{D(-)-α-[2-hydroxy-6-(p-tolyl)pyridine-3-carbonylamino]-p-hydroxyphenylacetamido}-3-(5-carbamoyl-1,3,4-thiadiazol-2-ylthiomethyl)-3-cephem-4-carboxylate]											1.56 µg/mL						50 µg/mL	1.56 µg/mL			MIC ([8]; Pseudomonas aeruginosa, IAM1007, read-out: Minimum prohibiting concentration): 100 µg/mL; MIC ([9]; Serratia, NO.2, read-out: Minimum prohibiting concentration): 50 µg/mL; MIC [10]: 12.5 µg/mL; MIC ([11]; Escherichia coli, C731, read-out: Minimum prohibiting concentration): 6.25 µg/mL; MIC [12, 49]: 3.13 µg/mL; MIC [13, 34]: 12.5 µg/mL; MIC ([15]; Bacillus subtilis, ATCC6633, read-out: Minimum prohibiting concentration): 0.78 µg/mL; MIC [16, 36]: 50 µg/mL; MIC ([17]; Staphylococcus aureus, 209P): 0.2 µg/mL; MIC ([18]; Pseudomonas, C7383, read-out: Minimum prohibiting concentration): 100 µg/mL; MIC ([19]; Enterobacter, C7317, read-out: Minimum prohibiting concentration): 12.5 µg/mL; MIC ([20]; Vibrio parahaemolyticus, K7, read-out: Minimum prohibiting concentration): 3.13 µg/mL; MIC [22]: 50 µg/mL; MIC [2, 42]: 25 µg/mL; MIC ([3]; Vibrio parahaemolyticus, K5, read-out: Minimum prohibiting concentration): 3.13 µg/mL; MIC ([4]; Staphylococcus aureus, SMITHS424, read-out: Minimum prohibiting concentration): 0.39 µg/mL; MIC [5, 50]: 0.78 µg/mL
